In paper PMC5713674, “Meditope–Fab interaction: threading the hole” (Acta Crystallographica. Section F, Structural Biology …, 2017):
pKd: −log10 of the molar value. Where two headings read alike, the source gives them in different places.

Key:
cetuximab [1] = assay: Surface plasmon resonance (Biacore T100) binding kinetics of meditope variants to immobilised cetuximab IgG; conditions: 25°C; for k a / k d: pH 7.4, HBS-EP+
Description: All surface plasmon resonance (SPR) experiments were performed on a GE Biacore T100 instrument (GE Healthcare) at 25°C as described previously (Bzymek, Avery et al., 2016[▸]; Bzymek, Ma et al., 2016[▸]). Briefly, cetuximab IgG ligand was amine-coupled to CM5 chips using acetate buffer pH 5.5 at a density of 5000 RU. Analytes were prepared in GE buffer HBS-EP+ [10 mM HEPES pH 7.4, 150 mM NaCl, 3 mM EDTA, 0.05%(v/v) surfactant P20]. Kinetics experiments were carried out at a flow rate of 30 µl min^−1 using HBS-EP+ as both the running and regeneration buffer. Experimental data were processed using Biacore T100 Evaluation software v.2.0.1. Purified peptides were dissolved in water and extensively dialyzed to remove any residual TFA, and their concentration was determined as described previously (Bzymek, Ma et al., 2016[▸]).

cetuximab [2] = assay: as above; conditions: SPR, 25°C, at pH 5.5
cetuximab [3] = system: cetuximab; design: method as in Bzymek, Ma et al. (2016); conditions: SPR, 25°C, pH 7.4; ref Bzymek, Ma et al. (2016); cited from earlier work

Molecule	k a (cetuximab [1]; SPR)	k d (cetuximab [1]; SPR)	other results
CC(C)C[C@@H]1NC(=O)[C@H](CCCNC(=N)N)NC(=O)[C@H](CCCNC(=N)NCCCO)NC(=O)[C@H]([C@@H](C)O)NC(=O)[C@H](CO)NC(=O)[C@H](CC(C)C)NC(=O)[C@H](CC(=O)O)NC(=O)[C@H](Cc2ccccc2)NC(=O)[C@H](CCC(N)=O)NC(=O)CCCCCCNC(=O)[C@H](CCCCN)NC1=O [(AHA)QFDLSTR(PrOH)RLK, aminoheptanoic acid-linked N-(3-hydroxypropyl)-L-arginine meditope variant]	1.2 M^−1 s^−1 × 10^4	0.027 s⁻¹	increase in the half-life of the complex over the nonmodified AHA-cyclized meditope (cetuximab [1]; t = ln(2)/k d, HBS-EP+ pH 7.4): 1.7 fold
CC(C)C[C@@H]1NC(=O)[C@H](CCCNC(=N)N)NC(=O)[C@H](CCCNC(=N)NCCC(=O)O)NC(=O)[C@H]([C@@H](C)O)NC(=O)[C@H](CO)NC(=O)[C@H](CC(C)C)NC(=O)[C@H](CC(=O)O)NC(=O)[C@H](Cc2ccccc2)NC(=O)[C@H](CCC(N)=O)NC(=O)CCCCCCNC(=O)[C@H](CCCCN)NC1=O [(AHA)QFDLSTR(EtCOOH)RLK, aminoheptanoic acid-linked N-carboxyethylarginine meditope variant]			pKd (cetuximab [2]): 4.49; k a (cetuximab [2]): 0.06 M^−1 s^−1 × 10^4; k d (cetuximab [2]): 0.020 s⁻¹
CQFDLSTRRLKC			k a (cetuximab [3]): 8.8 M^−1 s^−1 × 10^4
CCCCCCCCNC(=N)NCCC[C@@H]1NC(=O)[C@H]([C@@H](C)O)NC(=O)[C@H](CO)NC(=O)[C@H](CC(C)C)NC(=O)[C@H](CC(=O)O)NC(=O)[C@H](Cc2ccccc2)NC(=O)[C@H](CCC(N)=O)NC(=O)CCCCCCNC(=O)[C@H](CCCCN)NC(=O)[C@H](CC(C)C)NC(=O)[C@H](CCCNC(=N)N)NC1=O [(AHA)QFDLSTR(nOc)RLK, aminoheptanoic acid-linked n-octylarginine meditope variant]	0.93 M^−1 s^−1 × 10^4	0.079 s⁻¹	change of half-life of the complex versus nonmodified AHA-cyclized meditope (in words) (cetuximab [1]; t = ln(2)/k d, HBS-EP+ pH 7.4): slightly reduced
CCCCNC(=N)NCCC[C@@H]1NC(=O)[C@H]([C@@H](C)O)NC(=O)[C@H](CO)NC(=O)[C@H](CC(C)C)NC(=O)[C@H](CC(=O)O)NC(=O)[C@H](Cc2ccccc2)NC(=O)[C@H](CCC(N)=O)NC(=O)CCCCCCNC(=O)[C@H](CCCCN)NC(=O)[C@H](CC(C)C)NC(=O)[C@H](CCCNC(=N)N)NC1=O [(AHA)QFDLSTR(nBu)RLK, aminoheptanoic acid-linked n-butylarginine meditope variant]	2.2 M^−1 s^−1 × 10^4	0.060 s⁻¹	change of half-life of the complex versus nonmodified AHA-cyclized meditope (in words) (cetuximab [1]; t = ln(2)/k d, HBS-EP+ pH 7.4): slightly reduced
CC(C)C[C@@H]1NC(=O)[C@H](CCCNC(=N)N)NC(=O)[C@H](CCCNC(=N)NCCCN)NC(=O)[C@H]([C@@H](C)O)NC(=O)[C@H](CO)NC(=O)[C@H](CC(C)C)NC(=O)[C@H](CC(=O)O)NC(=O)[C@H](Cc2ccccc2)NC(=O)[C@H](CCC(N)=O)NC(=O)CCCCCCNC(=O)[C@H](CCCCN)NC1=O [(AHA)QFDLSTR(PrNH2)RLK, aminoheptanoic acid-linked N-(3-aminopropyl)-L-arginine meditope variant]	1.2 M^−1 s^−1 × 10^4	0.110 s⁻¹	
CC(C)C[C@@H]1NC(=O)[C@H](CCCNC(=N)N)NC(=O)[C@H](CCCNC(=N)N)NC(=O)[C@H]([C@@H](C)O)NC(=O)[C@H](CO)NC(=O)[C@H](CC(C)C)NC(=O)[C@H](CC(=O)O)NC(=O)[C@H](Cc2ccccc2)NC(=O)[C@H](CCC(N)=O)NC(=O)CCCCCCNC(=O)[C@H](CCCCN)NC1=O [reference compound]	2.5 M^−1 s^−1 × 10^4	0.046 s⁻¹	k a (cetuximab [2]): 2.0 M^−1 s^−1 × 10^4; k d (cetuximab [2]): 0.075 s⁻¹; k a (on-rate) (cetuximab [1]; SPR, pH 7.4): 25000 M⁻¹ s⁻¹
